{"source": "patent US4173647A", "about": "“4-Spectinomycylamine and salts thereof” (Boehringer Ingelheim GmbH, priority 1977, dated 1979)", "key": {"Pseudomonas aeruginosa": {"tested_on": "Pseudomonas aeruginosa", "experiment": "series-dilution assay in the microtiter system, bacteriostasis", "type": "cell-based", "conditions": "pH 6.7, read-out: Minimum inhibiting concentration", "protocol": "(§1) 4-R-Spectinomycylamine of the formula I was tested in comparison with the known antibiotic spectinomycin with regard to its effectiveness against Staphylococcus aureus SG 511, Streptococcus aronson, Escherichia coli ATCC 9637, Pseudomonas aeruginosa, Serratia marcescens ATCC 13 880, Klebsiella pneumoniae ATCC 10 031, Proteus mirabilis and Proteus vulgaris, and with regard to acute toxicity.\n(§2) For these tests the method of the series-dilution essay in the microtiter system was used. The substances were tested in a fluid medium with regard to bacteriostasis. The effectiveness of the bacteriostasis was tested at the following concentrations: 80, 40, 20, 10, 5, 2.5, 1.25, 0.6 and 0.3 μgm/ml. A bouillon consisting of 5 gm of peptone, 3 gm of meat extract, filled up to a volume of 1000 ml with distilled water served as nutriant; pH-value 6.7. The age of the primary cultures was 24 hours. The adjustment of the microorganism suspension was carried out with a photometer (according to Eppendorf) (diameter of the test tube 14 mm, filter 546 nm) by comparison with the turbidity of a barium sulfate comparison suspension produced by a suspension of barium sulfate which was prepared by addition of 3.0 ml of 1% barium chloride solution on 97 ml of 1% sulfuric acid. After the adjustment streptococcus aronson was diluted 1:150 and the remaining test microorganisms were further diluted with sodium chloride solution in the proportion of 1:1500.\n(§3) 16 mgm of the test substance was weighed in 10 ml measuring flasks and filled up with the solvent until the mark was reached. The further dilution series was prepared with distilled water or with the respective solvent.\n(§4) 0.2 ml of nutrient medium, 0.01 ml of the corresponding test substance dilution and 1 drop of the microorganism suspension were placed into the cavities of the microtiter plates and incubated for 18 to 20 hours at 37° C. A solvent control batch was always treated in like manner at the same time.\n(§5) The reading was effected macroscopically, whereby the respective threshold concentration (=lowest still bacteriostatically effective concentration) was determined."}, "Proteus vulgaris": {"tested_on": "Proteus vulgaris", "experiment": "series-dilution assay in the microtiter system, bacteriostasis", "type": "cell-based", "conditions": "18 to 20 hours at 37° C., pH 6.7, lowest still bacteriostatically effective concentration, read-out: Minimum inhibiting concentration", "protocol": "as §1, §2, §3, §4, §5"}, "[1]": {"tested_on": "Staphylococcus aureus SG 511", "experiment": "series-dilution assay in the microtiter system, bacteriostasis", "type": "cell-based", "conditions": "SG511, 18 to 20 hours at 37° C., pH 6.7, lowest still bacteriostatically effective concentration, read-out: Minimum inhibiting concentration", "protocol": "as §1, §2, §3, §4, §5"}, "[2]": {"tested_on": "Escherichia coli ATCC 9637", "experiment": "series-dilution assay in the microtiter system, bacteriostasis", "type": "cell-based", "conditions": "ATCC9637, pH 6.7, read-out: Minimum inhibiting concentration", "protocol": "as §1, §2, §3, §4, §5"}, "Proteus mirabilis": {"tested_on": "Proteus mirabilis", "experiment": "series-dilution assay in the microtiter system, bacteriostasis", "type": "cell-based", "conditions": "18 to 20 hours at 37° C., pH 6.7, lowest still bacteriostatically effective concentration, read-out: Minimum inhibiting concentration", "protocol": "as §1, §2, §3, §4, §5"}, "[3]": {"tested_on": "Klebsiella pneumoniae ATCC 10 031", "experiment": "series-dilution assay in the microtiter system, bacteriostasis", "type": "cell-based", "conditions": "ATCC10, 18 to 20 hours at 37° C., pH 6.7, lowest still bacteriostatically effective concentration, read-out: Minimum inhibiting concentration", "protocol": "as §1, §2, §3, §4, §5"}, "Streptococcus aronson": {"tested_on": "Streptococcus aronson", "experiment": "series-dilution assay in the microtiter system, bacteriostasis", "type": "cell-based", "conditions": "18 to 20 hours at 37° C., pH 6.7, lowest still bacteriostatically effective concentration, read-out: Minimum inhibiting concentration", "protocol": "as §1, §2, §3, §4, §5"}, "[4]": {"tested_on": "Serratia marcescens ATCC 13 880", "experiment": "series-dilution assay in the microtiter system, bacteriostasis", "type": "cell-based", "conditions": "ATCC13, pH 6.7, read-out: Minimum inhibiting concentration", "protocol": "as §1, §2, §3, §4, §5"}, "[5]": {"experiment": "antimicrobial activity (general statement, in vitro and in warm-blooded animals such as mice)"}}, "data": [{"compound": "CNC1C(O)C(NC)C2OC3(O)C(N)CC(C)OC3OC2C1O", "note": "(centres unmarked) [4-R-Spectinomycylamine]", "values": [{"measurement": "MIC", "setting": "Pseudomonas aeruginosa", "result": 40, "unit": "µg/mL"}, {"measurement": "MIC", "setting": "Proteus vulgaris", "result": 5, "unit": "µg/mL"}, {"measurement": "MIC", "setting": "[1]", "result": 5, "unit": "µg/mL"}, {"measurement": "MIC", "setting": "[2]", "result": 20, "unit": "µg/mL"}, {"measurement": "MIC", "setting": "Proteus mirabilis", "result": 10, "unit": "µg/mL"}, {"measurement": "MIC", "setting": "[3]", "result": 10, "unit": "µg/mL"}, {"measurement": "MIC", "setting": "Streptococcus aronson", "result": 5, "unit": "µg/mL"}, {"measurement": "MIC", "setting": "[4]", "result": 10, "unit": "µg/mL"}, {"measurement": "antimicrobial properties (in words)", "setting": "[5]", "result": "especially pronounced"}]}, {"compound": "CN[C@@H]1[C@H](O)[C@H](NC)[C@H]2O[C@@]3(O)C(=O)C[C@@H](C)O[C@H]3O[C@@H]2[C@H]1O", "note": "[Spectinomycin, spectinomycin, reference compound]", "values": [{"measurement": "MIC", "setting": "Pseudomonas aeruginosa", "result": 160, "unit": "µg/mL"}, {"measurement": "MIC", "setting": "Proteus vulgaris", "result": 10, "unit": "µg/mL"}, {"measurement": "MIC", "setting": "[1]", "result": 20, "unit": "µg/mL"}, {"measurement": "MIC", "setting": "[2]", "result": 40, "unit": "µg/mL"}, {"measurement": "MIC", "setting": "Proteus mirabilis", "result": 10, "unit": "µg/mL"}, {"measurement": "MIC", "setting": "[3]", "result": 20, "unit": "µg/mL"}, {"measurement": "MIC", "setting": "Streptococcus aronson", "result": 10, "unit": "µg/mL"}, {"measurement": "MIC", "setting": "[4]", "result": 20, "unit": "µg/mL"}]}]}
